From PubChem BioAssay (NCI)
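Compound exposure: 48 hours, 5 concentrations, 96-well plates. TGI: total growth inhibition.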 Calls of active or inactive are those of the source. Cut-off read from the data, not from the text of the source: active = GI50 below about 0.43 µM; inactive = the rest.

Tests used:
Assay in all cases: NCI anticancer screen, dose series, 48 h
[1] = test system: CAKI-1 renal
[2] = test system: SK-MEL-5 melanoma
[3] = test system: HL-60(TB) leukemia
[4] = test system: HCC-2998 colon
[5] = test system: KM12 colon
[6] = test system: T-47D breast
[7] = test system: MDA-N
[8] = test system: SF-268 CNS
[9] = test system: NCI-H522 lung
[10] = test system: A498 renal
[11] = test system: UACC-62 melanoma
[12] = test system: SNB-19 CNS
[13] = test system: MDA-MB-435
[14] = test system: SR leukemia
[15] = test system: U251 CNS
[16] = test system: SK-OV-3 ovarian
[17] = test system: MCF7 breast
[18] = test system: K-562 leukemia
[19] = test system: RPMI-8226 leukemia
[20] = test system: TK-10 renal
[21] = test system: HOP-92 NSCLC
[22] = test system: PC-3 prostate
[23] = test system: HCT-15 colon
[24] = test system: OVCAR-8 ovarian
[25] = test system: MOLT-4 leukemia
[26] = test system: SK-MEL-2 melanoma
[27] = test system: NCI-H23 lung
[28] = test system: OVCAR-5 ovarian
[29] = test system: NCI/ADR-RES ovarian
[30] = test system: HS 578T breast
[31] = test system: UACC-257 melanoma
[32] = test system: HT29 colon
[33] = test system: RXF 393 renal
[34] = test system: COLO 205 colon
[35] = test system: DU-145 prostate
[36] = test system: SK-MEL-28 melanoma
[37] = test system: NCI-H460 lung
[38] = test system: OVCAR-4 ovarian
[39] = test system: UO-31 renal
[40] = test system: LOX IMVI melanoma
[41] = test system: SNB-75 CNS
[42] = test system: SF-539 CNS
[43] = test system: MALME-3M melanoma
[44] = test system: SN12C renal
[45] = test system: IGROV1 ovarian
[46] = test system: EKVX NSCLC
[47] = test system: CCRF-CEM leukemia
[48] = test system: BT-549 breast
[49] = test system: M14 melanoma
[50] = test system: MDA-MB-231 breast
[51] = test system: SF-295 CNS
[52] = test system: ACHN renal
[53] = test system: HCT-116 colon
[54] = test system: OVCAR-3 ovarian
[55] = test system: NCI-H226 lung
[56] = test system: 786-0 renal
[57] = test system: A549 NSCLC
[58] = test system: SW-620 colon
[59] = test system: HOP-62 NSCLC

CCCC(=O)OCC(COC(=O)CCC)OC(=O)CCC
TGI [1]: > 100 µM
outcome [1]: inactive
TGI [2]: > 100 µM
outcome [2]: inactive
TGI [3]: 90.7 µM
outcome [3]: inactive
TGI [4]: > 100 µM
outcome [4]: inactive
TGI [5]: > 100 µM
outcome [5]: inactive
TGI [6]: > 100 µM
TGI [7]: > 100 µM
outcome [7]: inactive
TGI [8]: > 100 µM
outcome [8]: inactive
TGI [9]: > 100 µM
TGI [10]: > 100 µM
outcome [10]: inactive
TGI [11]: > 100 µM
TGI [12]: > 100 µM
outcome [12]: inactive
TGI [13]: > 100 µM
outcome [13]: inactive
outcome [14]: inactive
TGI [15]: > 100 µM
outcome [15]: inactive
TGI [16]: > 100 µM
outcome [16]: inactive
TGI [17]: > 100 µM
outcome [17]: inactive
TGI [18]: > 100 µM
outcome [18]: inactive
TGI [19]: > 100 µM
outcome [19]: inactive
TGI [20]: > 100 µM
outcome [20]: inactive
TGI [21]: > 100 µM
TGI [22]: > 100 µM
outcome [22]: inactive
TGI [23]: > 100 µM
outcome [23]: inactive
TGI [24]: > 100 µM
outcome [24]: inactive
TGI [25]: > 100 µM
outcome [25]: inactive
TGI [26]: > 100 µM
outcome [26]: inactive
TGI [27]: > 100 µM
outcome [27]: inactive
TGI [28]: > 100 µM
TGI [29]: 88.6 µM
outcome [29]: inactive
TGI [30]: > 100 µM
outcome [30]: inactive
TGI [31]: > 100 µM
outcome [31]: inactive
TGI [32]: > 100 µM
outcome [32]: inactive
TGI [33]: > 100 µM
TGI [34]: > 100 µM
outcome [34]: inactive
TGI [35]: > 100 µM
outcome [35]: inactive
TGI [36]: > 100 µM
outcome [36]: inactive
TGI [37]: > 100 µM
outcome [37]: inactive
TGI [38]: > 100 µM
outcome [38]: inactive
TGI [39]: > 100 µM
outcome [39]: inactive
TGI [40]: > 100 µM
outcome [40]: inactive
TGI [41]: > 100 µM
outcome [41]: inactive
TGI [42]: > 100 µM
outcome [42]: inactive
TGI [43]: > 100 µM
outcome [43]: inactive
TGI [44]: > 100 µM
outcome [44]: inactive
TGI [45]: > 100 µM
TGI [46]: > 100 µM
outcome [46]: inactive
TGI [47]: > 100 µM
outcome [47]: inactive
TGI [48]: > 100 µM
TGI [49]: > 100 µM
outcome [49]: inactive
TGI [50]: > 100 µM
outcome [50]: inactive
TGI [51]: > 100 µM
outcome [51]: inactive
TGI [52]: > 100 µM
outcome [52]: inactive
TGI [53]: > 100 µM
outcome [53]: inactive
TGI [54]: > 100 µM
TGI [55]: > 100 µM
outcome [55]: inactive
TGI [56]: > 100 µM
outcome [56]: inactive
TGI [57]: > 100 µM
outcome [57]: inactive
TGI [58]: > 100 µM
outcome [58]: inactive
TGI [59]: > 100 µM
outcome [59]: inactive
